Columns and labels:
Assay type in all cases: in vivo
German cockroaches = experiment: Direct spray kill time test on German cockroaches; settings: aqueous solution, sprayed 3 seconds, entry of 300 = no deaths during that time
Excerpt: (§1) To determine the effectiveness of an essential oil/sodium lauryl sulfate aerosol spray according to this invention as an insecticide when applied directly by a conventional pump spray on German cockroaches, American cockroaches and various ant species.
(§2) Insects shall be healthy and undeformed. Only adult male and female insects shall be used for testing purposes. The insects shall be contained in a 21.5×15.5×5.5 inch testing arena.
(§3) 1. Gather 10 adult insects, 5 males and 5 females.
(§4) 2. Place 1 insect into the testing arena.
(§5) 3. Select spray to be tested. Spray cockroaches for 3 seconds, ants for 2 seconds.
(§6) 4. Record kill time in seconds.
(§7) 5. Wipe away any spray residue before beginning another test.
(§8) 6. Repeat steps 2, 3, 4 and 5 until all test insects are used.
(§9) 7. Record date of testing, type of test material used, type of insect used, kill time in seconds, and whether or not test specimen meets standard.
(§10) Following this protocol, aqueous solutions of selected essential oils were prepared at different concentrations, both with and without the addition of sodium lauryl sulfate, and tested for their insecticidal activity (kill time in seconds) against German and American cockroaches and black or pavement ants. The results are tabulated below and illustrated graphically in the accompanying drawings.
(§11) ^3 The tests shown in the Tables utilized the active ingredients in an aqueous solution dispensed from a standard pump-type sprayer. Shorter kill times result when the insecticide is aerosolized, i.e., dispensed from a pressurized aerosol can using a propellant such as carbon dioxide.

American cockroaches = experiment: Direct spray kill time test on American cockroaches; settings: aqueous solution, sprayed 3 seconds, entry of 300 = no deaths during that time
Excerpt: as §1, §2, §3, §4, §5, §6, §7, §8, §9, §10, §11

Black Ants = experiment: Direct spray kill time test on black ants; settings: aqueous solution, sprayed 2 seconds, entry of 300 = no deaths during that time
Excerpt: as §1, §2, §3, §4, §5, §6, §7, §8, §9, §10, §11

Pavement Ants = experiment: Direct spray kill time test on pavement ants; settings: aqueous solution, pump sprayer, sprayed 2 seconds, entry of 300 = no deaths during that time
Excerpt: as §1, §2, §3, §4, §5, §6, §7, §8, §9, §10, §11

[1] = cinnamon oil series, pump sprayer
[2] = citronella oil series, pump sprayer
[3] = cornmint oil series, standard pump-type sprayer
[4] = grapefruit oil series, pump sprayer
[5] = peppermint oil series, pump sprayer
[6] = tangerine oil series, pump sprayer
[7] = orange sweet oil series, pump sprayer

CCCCCCCCCCCCOS(=O)(=O)[O-].[Na+] [100% SLS, sodium lauryl sulfate]
Kill Time (German cockroaches; [1]): > 300 s
Kill Time (German cockroaches; [2]): > 300 s
Kill Time (German cockroaches; [3]): > 300^1 Seconds
Kill Time (German cockroaches; [4]): > 300 s
Kill Time (German cockroaches; lemon oil series, pump sprayer): > 300 s
Kill Time (German cockroaches; lime oil series, pump sprayer): > 300 s
Kill Time (German cockroaches; orange sweet oil series, pump sprayer, repetitions of 10% OSO mixture not performed): > 300 s
Kill Time (German cockroaches; [5]): > 300 s
Kill Time (German cockroaches; [6]): > 300 s
Kill Time (American cockroaches; [1]): > 300 s
Kill Time (American cockroaches; [2]): > 300 s
Kill Time (American cockroaches; [3]): > 300 s
Kill Time (American cockroaches; [4]): > 300 s
Kill Time (American cockroaches; lemon oil series, pump sprayer): > 300 s
Kill Time (American cockroaches; lime oil series, pump sprayer): > 300 s
Kill Time (American cockroaches; [7]): > 300 s
Kill Time (American cockroaches; [5]): > 300 s
Kill Time (American cockroaches; [6]): > 300 s
Kill Time (Black Ants; [1]): > 300 s
Kill Time (Black Ants; [3]): > 300 s
Kill Time (Black Ants; [7]): > 300 s
Kill Time (Pavement Ants; citronella oil series): > 300 s
Kill Time (Pavement Ants; grapefruit oil series): > 300 s
Kill Time (Pavement Ants; lemon oil series): > 300 s
Kill Time (Pavement Ants; lime oil series): > 300 s
Kill Time (Pavement Ants; peppermint oil series): > 300 s
Kill Time (Pavement Ants; tangerine oil series): > 300 s

From US6548085B1, “Insecticidal compositions and method of controlling insect pests using same” (Woodstream Corporation, priority 1998, dated 2003)
